Patent publication US6573282B1 (priority 1995, dated 2003)
Several values for one entry are separate records, joined by “and”; a condition that tells them apart may be missing. Identical values can stand only once. Entries after “also recorded” stand apart in the source; their conditions may differ. Counter-ions that a name gives are not always drawn. Like-named read-outs stand apart in the source and are kept apart here.

Key:
[1] = tested on: formalin-induced nociception; assay: Formalin-induced flinching (early and late/tonic phase), intrapaw injection; assay type: in vivo, rat; conditions: for Formalin-Induced Flinching (Late Phase) % Maximal Efficacy / Formalin-Induced Flinching (Late Phase) ED50: intrapaw; for A50, antinociception in the second phase of flinching: i.paw injection; for % Antagonism of Late Phase Flinching: 10 minutes prior to formalin, mean ± SEM
[2] = molecular target: human κ receptor (Homo sapiens, UniProt P41145); assay: biochemical; assay type: binding
human κ receptor, sequence (P41145 whole entry): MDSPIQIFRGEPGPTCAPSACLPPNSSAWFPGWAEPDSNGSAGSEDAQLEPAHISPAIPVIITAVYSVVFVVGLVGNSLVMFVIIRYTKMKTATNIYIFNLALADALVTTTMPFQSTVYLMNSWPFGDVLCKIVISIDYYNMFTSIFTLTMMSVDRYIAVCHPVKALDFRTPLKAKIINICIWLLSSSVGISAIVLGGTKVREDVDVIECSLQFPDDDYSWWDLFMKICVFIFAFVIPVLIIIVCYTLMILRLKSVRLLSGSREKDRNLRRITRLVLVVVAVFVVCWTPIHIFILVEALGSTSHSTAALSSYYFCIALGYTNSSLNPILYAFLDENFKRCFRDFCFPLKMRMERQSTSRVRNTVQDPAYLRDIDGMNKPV

[3] = molecular target: human δ receptor (Homo sapiens, UniProt P41143); assay: Opiate receptor binding, δ
human δ receptor, sequence (P41143 whole entry): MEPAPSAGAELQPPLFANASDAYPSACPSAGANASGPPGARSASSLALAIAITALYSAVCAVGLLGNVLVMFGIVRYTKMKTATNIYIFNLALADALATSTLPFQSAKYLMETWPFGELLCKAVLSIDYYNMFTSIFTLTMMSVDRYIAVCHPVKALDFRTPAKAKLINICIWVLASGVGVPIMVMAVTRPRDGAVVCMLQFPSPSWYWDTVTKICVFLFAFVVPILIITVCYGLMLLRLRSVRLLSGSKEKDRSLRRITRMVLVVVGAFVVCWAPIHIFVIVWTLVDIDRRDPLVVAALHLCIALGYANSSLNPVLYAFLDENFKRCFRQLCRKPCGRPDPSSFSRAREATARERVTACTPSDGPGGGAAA

[4] = molecular target: T1, human μ opiate receptors (Homo sapiens, UniProt P35372); assay: biochemical; assay type: binding
T1 construct: expressed in transfected cells; host or cells: CHO cells
T1 sequence (P35372 whole entry): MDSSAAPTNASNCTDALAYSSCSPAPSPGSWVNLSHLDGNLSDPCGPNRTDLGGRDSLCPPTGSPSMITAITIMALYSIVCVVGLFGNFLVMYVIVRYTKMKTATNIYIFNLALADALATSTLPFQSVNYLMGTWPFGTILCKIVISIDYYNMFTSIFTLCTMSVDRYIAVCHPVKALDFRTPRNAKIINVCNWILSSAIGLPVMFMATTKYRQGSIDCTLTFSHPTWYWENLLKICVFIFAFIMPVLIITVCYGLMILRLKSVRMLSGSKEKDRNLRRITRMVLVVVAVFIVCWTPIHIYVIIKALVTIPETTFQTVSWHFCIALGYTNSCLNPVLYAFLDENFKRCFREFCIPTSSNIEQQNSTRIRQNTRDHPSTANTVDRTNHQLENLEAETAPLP

[5] = tested on: catalepsy; assay: Catalepsy: time to dismount from a 4 cm high bar after IM injection; conditions: for Time to Dismount from Bar (sec) Before Drug: before drug (baseline); for Time to Dismount from Bar (sec) Before Drug / Time to Dismount from Bar (sec) After Drug Treatment (15 min): individual rats and x ± SE; for catalepsy: unanesthetized rats, IM morphine 3 mg, loperamide 0.5 mg
[6] = tested on: yeast-injected left hind paw; assay: Randall-Selitto assay, yeast-induced inflammation, paw pressure threshold; assay type: in vivo, rat; conditions: four hours after yeast, n=10
Excerpt: Air pressure from an air line is admitted through a needle valve to a syringe into a pressure gauge which is connected by a T-tube. The syringe is mounted with a plunger downward, to which is connected a short bullet-shaped wooden peg. The pressure is applied through the wooden tip to the plantar surface of the rat's foot at a specified rate of mm Hg per second. The end point is said to have been reached when the rat starts struggling.
Typically, rats, such as albino rats (120-170 g) of the Charles River Sprague-Dawley strain, or other laboratory strain are used. Hyperalgesia [inflammation] is produced by the injection of 0.1 ml of a 20% suspension of Brewer's yeast into the plantar surface of the rat's hind foot. Thresholds can be determined using a modified apparatus described in Winter and Flataker [(1965) J. Pharm. Exp. Ther. 148:373]. The pain threshold is measured as the pressure in mm Hg required to induce the desired response [a sharp audible squeak and/or struggle] when pressure is applied to the foot. Air pressure from an air line [or other source, such as a vice] is admitted through a needle valve to a 20 ml glass syringe and to a pressure gauge. Pressure is applied to the foot of the rat at a selected rate. The agent compound to be tested is administered typically 2 hours after the yeast injection and threshold response is determined. […] Analgesic activity was determined in terms of the percentage of inhibition of response:
Inhibition (%)=Threshold of the treated group−Threshold of the control group/Threshold of the control group×100
A Randall-Selitto assay [see, Randall et al. (1957) Arch. Int. Pharmacodyn.
Each rat was injected with 100 μl of a 20% yeast solution into the plantar surface of the left hind paw. […] Control rats were treated with 10% DMSO alone [n=20]. The pain thresholds of the inflamed and non-inflamed paws were measured by application of a pressure stimulus to the paw and the paw pressure threshold in gram [g] was recorded.

[7] = tested on: acute pain models; conditions: given systemically; tail clip and hot plate tail withdrawal tests (Stahl et al., Shriver et al.); cited from earlier work
[8] = tested on: carrageenan or yeast inflammatory stimulus; assay: Separate tests using carrageenan or yeast as the inflammatory stimulus; assay type: in vivo
[9] = tested on: acetic acid-induced writhing; conditions: mice, intraparenterally (Takasuna et al. 1994); cited from earlier work

O=C(N1CCCC1)C(CCN1CCC(O)(c2ccc(Cl)cc2)CC1)(c1ccccc1)c1ccccc1 [Compound 17B]
Formalin-Induced Flinching (Late Phase) % Maximal Efficacy [1]: 86% | Formalin-Induced Flinching (Late Phase) ED50 [1]: 4.9 μg i. paw | Ki [2]: 2230 nM | Ki [3]: 68 nM | Ki [4]: 2.2 nM

N#CC(CCN1CCC(C(=O)O)(c2ccccc2)CC1)(c1ccccc1)c1ccccc1 [Difenoxin]
Formalin-Induced Flinching (Late Phase) % Maximal Efficacy [1]: 90% | Formalin-Induced Flinching (Late Phase) ED50 [1]: 33 μg i. paw | Ki [3]: 56 nM | Ki [4]: 13 nM

O=C(N1CCCCC1)C(CCN1CCC(O)(c2ccccc2)CC1)(c1ccccc1)c1ccccc1 [Compound 17C]
Formalin-Induced Flinching (Late Phase) % Maximal Efficacy [1]: 87% | Formalin-Induced Flinching (Late Phase) ED50 [1]: 19 μg i. paw | Ki [2]: 4680 nM | Ki [3]: 15 nM | Ki [4]: 2.5 nM

CNC(=O)C(CCN1CCC(O)(c2ccc(Cl)cc2)CC1)(c1ccccc1)c1ccccc1.Cl [Example 18, 4-(p-chlorophenyl)-4-hydroxy-N-methyl-α,α-diphenyl-1-piperidinebutyramide hydrochloride]
Formalin-Induced Flinching (Late Phase) % Maximal Efficacy [1]: 88% | Formalin-Induced Flinching (Late Phase) ED50 [1]: 3.2 μg i. paw | Ki [2]: > 1000 nM | Ki [3]: 200 nM | Ki [4]: 1.1 nM

CCN(C)C(=O)C(CCN1CCC(O)(c2ccc(Cl)cc2)CC1)(c1ccccc1)c1ccccc1 [Compound 17A]
Formalin-Induced Flinching (Late Phase) % Maximal Efficacy [1]: 91% | Formalin-Induced Flinching (Late Phase) ED50 [1]: 4.8 μg i. paw | Ki [2]: 1420 nM | Ki [3]: 123 nM | Ki [4]: 4 nM

CN(C)C(=O)C(CCN1CCC(O)(c2ccc(Cl)cc2)CC1)(c1ccccc1)c1ccccc1 [Ioperamide]
Formalin-Induced Flinching (Late Phase) % Maximal Efficacy [1]: 97% | Formalin-Induced Flinching (Late Phase) ED50 [1]: 6 μg i. paw

CN1CC[C@]23c4c5ccc(O)c4O[C@H]2[C@@H](O)C=C[C@H]3[C@H]1C5.O=S(=O)(O)O [morphine, morphine sulfate]
Time to Dismount from Bar (sec) Before Drug ([5]; IM morphine (3 mg) group, sulfate): 1 sec (3×) and 1 ± 1 sec and 2 sec | Time to Dismount from Bar (sec) After Drug Treatment (15 min) ([5]; IM morphine (3 mg), sulfate): 37 s and 31 s and 37 ± 11 s and 29 s and 52 s | catalepsy [5]: significantly more cataleptic | A50, antinociception in the second phase of flinching [1]: 72 µg

CN(C)C(=O)C(CCN1CCC(O)(c2ccc(Cl)cc2)CC1)(c1ccccc1)c1ccccc1 [loperamide, 4-(p-chlorophenyl)-4-hydroxy-N-N-dimethyl-α,α-diphenyl-1-piperidinebutyramide hydrochloride]
Paw Pressure Threshold ([6]; dose 10 μg/100 μl/rat in 10% DMSO): 66 ± 15 g | Paw Pressure Threshold ([6]; dose 50 μg/100 μl/rat in 10% DMSO): 124 ± 29 g | Paw Pressure Threshold ([6]; dose 250 μg/100 μl/rat in 10% DMSO): 153 ± 25 g | Time to Dismount from Bar (sec) Before Drug ([5]; IM loperamide (0.5 mg) group, hydrochloride): 1 sec (4×) and 1 ± 0 sec | Time to Dismount from Bar (sec) After Drug Treatment (15 min) ([5]; IM loperamide (0.5 mg), hydrochloride): 1 sec (2×) and 3 sec and 2 sec and 2 ± 1 sec | catalepsy [5]: no sign of catalepsy | time prior to formalin injection at which administration was still efficacious ([1]; 100 μg i.paw): up to 6 hours | antinociception when injected into the paw contralateral to formalin ([1]; 100 μg i.paw, contralateral): failed to produce antinociception | antihyperalgesia when injected ipsilateral to formalin ([1]; 100 μg i.paw, ipsilateral): exhibited antihyperalgesia activity | late phase flinching behavior at the highest dose ([1]; 300 μg i.paw, hydrochloride): practically no flinching behavior; also recorded: Full efficacy | % Antagonism of Late Phase Flinching ([1]; dose 1 μg into the paw): 20 ± 7% | % Antagonism of Late Phase Flinching ([1]; dose 3 μg into the paw): 53 ± 10% | % Antagonism of Late Phase Flinching ([1]; dose 10 μg into the paw): 55 ± 15% | % Antagonism of Late Phase Flinching ([1]; dose 30 μg into the paw): 74 ± 10% | % Antagonism of Late Phase Flinching ([1]; dose 100 μg into the paw): 75 ± 11% | % Antagonism of Late Phase Flinching ([1]; dose 300 μg into the paw): 97 ± 2% | effects on early phase flinching ([1]; doses of 0.3, 3, 30 and 300 μg): no significant effects | A50, antinociception in the second phase of flinching [1]: 6 µg | analgesic effects in acute pain models [7]: little or no analgesic effects | antihyperalgesic activity [8]: demonstrated antihyperalgesic activity | acetic acid-induced writhing [9]: suppression

4-(4-chlorophenyl)-4-hydroxy-N,N-dimethyl-α,α-diphenyl-1-piperidinebutanamide methyl p-toluenesulfonate [Example 19]
Formalin-Induced Flinching (Late Phase) % Maximal Efficacy [1]: 69% | Formalin-Induced Flinching (Late Phase) ED50 [1]: 93 μg i. paw

CCOC(=O)C1(c2ccccc2)CCN(CCC(C#N)(c2ccccc2)c2ccccc2)CC1 [Deiphenoxylate]
Formalin-Induced Flinching (Late Phase) % Maximal Efficacy [1]: 61% | Formalin-Induced Flinching (Late Phase) ED50 [1]: 158 μg i. paw | Ki ([3]; read-out: In Vitro Binding Affinities Human Opiate Receptors Ki, δ): 315 nM
